Laboratory results as given in ChEMBL document CHEMBL1821572, “Discovery of a novel series of selective HCN1 blockers” (Bioorg Med Chem Lett, 2011).

Legend:
[1] = target: T1, Potassium/sodium hyperpolarization-activated cyclic nucleotide-gated channel 2 (Homo sapiens, UniProt Q9UL51); assay: Inhibition of human HCN2 heterologously expressed in HEK-293 cells after 30 mins by VIPR assay; type: cell-based, HEK293
T1 sequence (Q9UL51 whole entry): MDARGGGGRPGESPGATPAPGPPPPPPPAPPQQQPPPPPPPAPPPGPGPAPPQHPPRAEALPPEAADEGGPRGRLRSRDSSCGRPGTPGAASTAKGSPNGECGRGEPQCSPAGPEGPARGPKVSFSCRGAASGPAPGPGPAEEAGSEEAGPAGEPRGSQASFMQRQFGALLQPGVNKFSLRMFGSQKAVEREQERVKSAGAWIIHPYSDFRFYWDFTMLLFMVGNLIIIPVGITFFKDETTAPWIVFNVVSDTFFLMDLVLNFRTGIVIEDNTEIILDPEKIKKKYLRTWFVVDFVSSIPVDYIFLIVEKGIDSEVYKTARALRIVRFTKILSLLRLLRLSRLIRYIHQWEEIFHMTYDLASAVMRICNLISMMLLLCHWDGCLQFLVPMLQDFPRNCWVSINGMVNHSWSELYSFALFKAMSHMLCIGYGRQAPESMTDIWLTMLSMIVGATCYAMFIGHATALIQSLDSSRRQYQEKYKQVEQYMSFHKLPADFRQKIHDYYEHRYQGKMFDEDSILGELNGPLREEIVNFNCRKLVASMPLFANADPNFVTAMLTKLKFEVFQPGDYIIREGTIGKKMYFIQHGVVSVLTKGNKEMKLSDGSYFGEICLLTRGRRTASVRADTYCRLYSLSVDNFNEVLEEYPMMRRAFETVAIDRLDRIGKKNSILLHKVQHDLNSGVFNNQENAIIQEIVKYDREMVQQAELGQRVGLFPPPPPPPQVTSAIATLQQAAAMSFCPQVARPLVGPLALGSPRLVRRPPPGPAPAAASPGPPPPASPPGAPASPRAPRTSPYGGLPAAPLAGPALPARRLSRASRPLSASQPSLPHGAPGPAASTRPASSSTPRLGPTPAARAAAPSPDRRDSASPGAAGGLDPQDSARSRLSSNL

[2] = system: Mus musculus; assay: Antiallodynic activity in ip dosed C57BL/6 mouse spared-nerve injury model assessed as reduction of tactile allodynia after 60 mins; type: functional; conditions: C57BL/6, ip, 1 h
[3] = target: T2, Potassium/sodium hyperpolarization-activated cyclic nucleotide-gated channel 1 (Homo sapiens, UniProt O60741); assay: Inhibition of human HCN1 heterologously expressed in HEK-293 cells after 30 mins by VIPR assay; type: cell-based, HEK293
T2 sequence (O60741 whole entry): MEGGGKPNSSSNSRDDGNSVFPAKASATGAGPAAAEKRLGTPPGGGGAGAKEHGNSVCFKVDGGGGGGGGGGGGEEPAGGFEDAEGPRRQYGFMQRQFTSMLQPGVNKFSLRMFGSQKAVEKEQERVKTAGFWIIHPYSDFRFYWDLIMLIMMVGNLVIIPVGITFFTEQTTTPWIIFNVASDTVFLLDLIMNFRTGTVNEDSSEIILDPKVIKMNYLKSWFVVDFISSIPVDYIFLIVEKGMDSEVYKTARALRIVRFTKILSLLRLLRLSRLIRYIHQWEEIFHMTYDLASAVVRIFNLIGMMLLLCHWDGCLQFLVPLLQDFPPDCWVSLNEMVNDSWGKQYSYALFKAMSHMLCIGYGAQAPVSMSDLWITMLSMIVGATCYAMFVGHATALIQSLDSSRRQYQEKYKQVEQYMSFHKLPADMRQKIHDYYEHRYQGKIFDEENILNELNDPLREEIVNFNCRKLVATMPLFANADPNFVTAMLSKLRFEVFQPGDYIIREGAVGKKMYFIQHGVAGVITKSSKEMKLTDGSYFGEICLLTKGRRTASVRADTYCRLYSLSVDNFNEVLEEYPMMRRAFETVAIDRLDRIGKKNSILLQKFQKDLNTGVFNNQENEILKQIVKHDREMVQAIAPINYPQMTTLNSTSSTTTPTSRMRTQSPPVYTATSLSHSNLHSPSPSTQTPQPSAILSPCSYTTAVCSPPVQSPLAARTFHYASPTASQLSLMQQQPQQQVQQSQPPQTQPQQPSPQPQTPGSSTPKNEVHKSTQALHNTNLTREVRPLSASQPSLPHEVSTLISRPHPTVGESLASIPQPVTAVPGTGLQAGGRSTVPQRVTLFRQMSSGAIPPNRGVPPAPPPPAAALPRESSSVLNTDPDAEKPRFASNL

[4] = organism: Homo sapiens; assay: Selectivity for human HCN1 over human HCN4
[5] = Half life in human liver microsomes; type: ADME, Microsome
[6] = target: T3, Potassium/sodium hyperpolarization-activated cyclic nucleotide-gated channel 3 (Homo sapiens, UniProt Q9P1Z3); assay: Inhibition of human HCN3 heterologously expressed in HEK-293 cells after 30 mins by VIPR assay; type: cell-based, HEK293
T3 sequence (Q9P1Z3 whole entry): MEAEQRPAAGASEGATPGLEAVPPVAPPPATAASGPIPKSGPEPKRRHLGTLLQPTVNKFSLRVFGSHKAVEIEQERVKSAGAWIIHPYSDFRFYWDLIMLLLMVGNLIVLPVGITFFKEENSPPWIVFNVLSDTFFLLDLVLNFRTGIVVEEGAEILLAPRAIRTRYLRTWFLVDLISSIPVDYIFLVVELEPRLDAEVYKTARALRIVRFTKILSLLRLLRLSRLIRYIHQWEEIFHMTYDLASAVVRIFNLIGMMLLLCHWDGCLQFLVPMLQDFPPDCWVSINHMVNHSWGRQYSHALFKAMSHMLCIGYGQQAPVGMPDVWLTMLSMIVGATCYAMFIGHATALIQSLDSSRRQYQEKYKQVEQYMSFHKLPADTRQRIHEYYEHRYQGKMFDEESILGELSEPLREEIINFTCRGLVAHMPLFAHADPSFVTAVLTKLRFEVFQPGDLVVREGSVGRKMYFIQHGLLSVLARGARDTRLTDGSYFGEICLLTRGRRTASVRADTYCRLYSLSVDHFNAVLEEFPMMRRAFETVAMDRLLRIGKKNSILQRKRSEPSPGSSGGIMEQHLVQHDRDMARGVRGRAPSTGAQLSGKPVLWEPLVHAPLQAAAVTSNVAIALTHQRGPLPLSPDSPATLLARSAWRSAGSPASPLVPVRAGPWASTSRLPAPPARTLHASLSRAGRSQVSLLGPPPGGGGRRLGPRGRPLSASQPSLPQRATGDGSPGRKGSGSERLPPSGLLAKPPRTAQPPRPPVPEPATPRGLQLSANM

With `CCOc1ccccc1C(=O)NCC1(N2CCNCC2)CCCCC1` the IC50 [1] was 5.01 µM, the ED50 [2] was 6 mg/kg and the IC50 [3] was 0.398 µM. The Selectivity ratio [4] was 10, the half-life [5] was 3.92 h and the IC50 [6] was 3.16 µM.
